Test results from patent US20240207292A1, “BORONIC ACID COMPOUNDS, COMPOSITIONS AND METHODS” (Trustees of Tufts College, priority 2021, published 2024).

Legend:
[1] = biological target: recombinant human fibroblast activation protein (FAP) (Homo sapiens (Human), UniProt Q12884); assay: In vitro assay fibroblast activation protein IC50 (Example 21); type: biochemical
[2] = biological target: recombinant human FAP (Homo sapiens (Human), UniProt Q12884); assay: In vitro enzyme IC50 assay, FAP (Example 16); type: biochemical; settings: 10 min preincubation at 25° C.; Z-Gly-Pro-AMC
Experimental: Biological Materials: For the in vitro IC50 determination assays, recombinant human DPPIV, DPP9, FAP, and PREP were purchased from R&D Systems, and DPP8 was from Biomol International. Buffer systems used were A (25 mM Tris, pH 8.0), B (50 mM Tris, pH 7.5), C (50 mM Tris, 140 mM NaCl, pH 7.5), D (25 mM Tris, 250 mM NaCl, pH 7.5), and E (20 mM Tris, 20 mM KCl, pH 7.4). […] Substrate Specificity Assay. Peptide libraries (0.21 mM) were incubated for 24 h with 1 nM FAP in buffer E at 37° C. The reaction was quenched by the addition of 1.2 N HCl. The samples were analyzed by reverse-phase HPLC-MS on a Thermo Finnigan LCQ Duo, quantifying the peaks in the resulting base peak chromatograms. Relative cleavage values were determined by comparing the postquench abundance of intact peptides to those in the initial library.
In Vitro Enzyme IC50 Assays. Enzymatic activity of DPPIV, DPP8, DPP9, FAP, and PREP was measured at 25° C. on a Molecular Devices M2e multidetection microtiter plate reader, monitoring the fluorescence at an excitation wavelength of 380 nm and an emission wavelength of 460 nm. The substrate was either H-Gly-Pro-AMC for the DPPIV, DPP8, and DPP9 assays or Z-Gly-Pro-AMC for the FAP and PREP assays. […] The final enzyme concentrations were 0.1, 0.8, 0.4, 1.2, and 0.6 nM for DPPIV, DPP8, DPP9, FAP, and PREP, respectively. […] Those prepared in pH 2.0 solution were preincubated at 25° C. for 4 h prior to dilution. Immediately prior to the commencement of the experiment, the 100 mM stocks were further diluted to 10^-3 M in the appropriate assay buffer, from which 1:10 serial dilutions were prepared. All inhibitors were tested in triplicate.

[3] = Effect of NAM on stability of 6522/6555 with 50 mM AAPH at 60° C. for 60 mins as a function of pH; type: physicochemical; settings: 5 mM NAM and 50 mM AAPH
Experimental: Effect of […] N-acetyl methionine (NAM) on the stability of the compounds 6522 (6522 compound structure shown above) at 60° C. in the presence of AAPH 2,2′-azobis-(2-amidopropane)hydrochloride as a function of pH.
• Concentration: of 6522 2 mg/mL • Reaction condition: With 5 mM NAM and 50 mM AAPH, at 60° C. for 60 mins

[4] = Stability of 6555 with stabilizers over hours without AAPH (50 mM NH4OAc at RT or Ultrapura water at 40° C.); type: physicochemical
From the text: The effect of specified sulfur-containing compounds and other stabilizer compounds (including non-sulfur-containing stabilizer compounds) and mixtures of sulfur-containing compounds and non-sulfur-containing stabilizer compounds with the boronic acid compound 6555 (structure shown above) at various pH values.

Chain of recombinant human FAP (Q12884 whole entry): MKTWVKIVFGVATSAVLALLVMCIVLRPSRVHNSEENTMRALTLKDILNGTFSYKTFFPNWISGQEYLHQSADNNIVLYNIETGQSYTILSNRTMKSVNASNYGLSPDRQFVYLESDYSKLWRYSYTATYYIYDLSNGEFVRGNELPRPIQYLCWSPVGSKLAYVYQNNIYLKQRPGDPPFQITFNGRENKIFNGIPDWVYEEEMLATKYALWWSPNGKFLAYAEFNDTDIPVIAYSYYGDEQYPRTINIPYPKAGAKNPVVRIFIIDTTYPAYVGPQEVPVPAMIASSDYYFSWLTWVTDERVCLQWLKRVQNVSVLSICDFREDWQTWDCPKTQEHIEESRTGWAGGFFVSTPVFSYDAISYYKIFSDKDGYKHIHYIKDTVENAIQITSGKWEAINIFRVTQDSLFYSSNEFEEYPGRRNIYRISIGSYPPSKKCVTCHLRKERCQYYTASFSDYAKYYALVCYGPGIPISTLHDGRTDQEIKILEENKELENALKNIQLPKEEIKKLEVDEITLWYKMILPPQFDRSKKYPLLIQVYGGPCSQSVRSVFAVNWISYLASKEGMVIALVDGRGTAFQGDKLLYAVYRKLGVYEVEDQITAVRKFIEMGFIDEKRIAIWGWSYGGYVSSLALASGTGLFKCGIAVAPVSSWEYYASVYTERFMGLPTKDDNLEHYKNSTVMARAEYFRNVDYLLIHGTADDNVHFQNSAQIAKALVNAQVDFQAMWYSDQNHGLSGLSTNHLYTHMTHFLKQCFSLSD
Chain of recombinant human fibroblast activation protein (FAP) (Q12884 whole entry): as above

With `C[C@@H](NC(=O)c1ccc(CNC(=O)CN2CCN(CC(=O)O)CCN(CC(=O)O)CCN(CC(=O)O)CC2)cc1)C(=O)N1CCC[C@H]1B(O)O` [compound 6555, DOTA-aminomethyl-Bz-D-Ala-boroPro] the IC50 [1] was 3.8 nM, the IC50 [2] was 0.7 nM and the “6555 Remain (%)” value ([3]; pH 4, 2 mg/mL) was 76.2%. The “6555 Remain (%)” value ([3]; pH 5, 2 mg/mL) was 70.0%, the “6555 Remaining (%)” value ([4]; 50 mM NH4OAc, RT, 6 hr, (−) mode, no stabilizer, pH 5.4) was 74.5% and the “6555 Remaining (%)” value ([4]; 50 mM NH4OAc, RT, 6 hr, (−) mode, sodium metabisulfite 5 mM, pH 5.1) was 63.3%. The “6555 Remaining (%)” value ([4]; 50 mM NH4OAc, RT, 7 hr, (−) mode, sodium ascorbate 5 mM, sodium gentisate 2 mM, sodium metabisulfite 5 mM, disodium hydrosulfite 5 mM, pH 5.2) was 77.4%, the “6555 Remaining (%)” value ([4]; 50 mM NH4OAc, RT, 7 hr, (−) mode, sodium metabisulfite 5 mM, disodium hydrosulfite 5 mM, pH 5.1) was 66.9% and the “6555 Remaining (%)” value ([4]; 50 mM NH4OAc, RT, 8 hr, (−) mode, NAM 5 mM, sodium metabisulfite 5 mM, pH 4.9) was 63.2%. The “6555 Remaining (%)” value ([4]; 50 mM NH4OAc, RT, 8 hr, (−) mode, sodium metabisulfite 25 mM, pH 4.2) was 63.2%, the “6555 Remaining (%)” value ([4]; 50 mM NH4OAc, RT, 26 hr, (+) mode, no stabilizer, pH 5.4) was 95.7% and the “6555 Remaining (%)” value ([4]; 50 mM NH4OAc, RT, 26 hr, (+) mode, sodium ascorbate 5 mM, sodium gentisate 2 mM, sodium metabisulfite 5 mM, disodium hydrosulfite 5 mM, pH 5.2) was 96.7%. For the same molecule, the “6555 Remaining (%)” value ([4]; 50 mM NH4OAc, RT, 31 hr, (−) mode, no stabilizer, pH 5.4) was 82.2%, the “6555 Remaining (%)” value ([4]; 50 mM NH4OAc, RT, 31 hr, (−) mode, sodium ascorbate 5 mM, sodium gentisate 2 mM, sodium metabisulfite 5 mM, disodium hydrosulfite 5 mM, pH 5.2) was 77.4% and the “6555 Remaining (%)” value ([4]; Ultrapura water, 40° C., 17 hr, (+) mode, no stabilizer, pH 5.2) was 95.4%. For the same molecule, the “6555 Remaining (%)” value ([4]; Ultrapura water, 40° C., 17 hr, (+) mode, sodium ascorbate 5 mM, sodium gentisate 2 mM, sodium metabisulfite 5 mM, disodium hydrosulfite 5 mM, pH 5) was 96.1%, the “6555 Remaining (%)” value ([4]; Ultrapura water, 40° C., 18 hr, (+) mode, sodium ascorbate 5 mM, sodium gentisate 2 mM, NAM 5 mM, disodium hydrosulfite 5 mM, pH 5.0) was 96.2% and the “6555 Remaining (%)” value ([4]; Ultrapura water, 40° C., 18 hr, (+) mode, sodium ascorbate 5 mM, sodium gentisate 2 mM, NAM 5 mM, sodium metabisulfite 5 mM, pH 5.1) was 95.6%. The “6555 Remaining (%)” value ([4]; Ultrapura water, 40° C., 27 hr, (−) mode, sodium ascorbate 5 mM, sodium gentisate 2 mM, NAM 5 mM, disodium hydrosulfite 5 mM, pH 5.0) was 85.3%, the “6555 Remaining (%)” value ([4]; Ultrapura water, 40° C., 27 hr, (−) mode, sodium ascorbate 5 mM, sodium gentisate 2 mM, NAM 5 mM, sodium metabisulfite 5 mM, pH 5.1) was 92.8% and the “6555 Remaining (%)” value ([4]; Ultrapura water, 40° C., 28 hr, (−) mode, no stabilizer, pH 5.2) was 83.7%. The “6555 Remaining (%)” value ([4]; Ultrapura water, 40° C., 28 hr, (−) mode, sodium ascorbate 5 mM, sodium gentisate 2 mM, sodium metabisulfite 5 mM, disodium hydrosulfite 5 mM, pH 5.0) was 82.9%, the “6555 Remain (%)” value ([4]; mM: ascorbate 0, gentisate 0, NAM 0, metabisulfite 0, hydrosulfite 0, pH 5.2, 17 hrs, SID 90754) was 95.4% and the “6555 Remain (%)” value ([4]; mM: ascorbate 0, gentisate 0, NAM 0, metabisulfite 0, hydrosulfite 0, pH 5.2, 28 hrs, SID 90768) was 83.7%. For the same molecule, the “6555 Remain (%)” value ([4]; mM: ascorbate 0, gentisate 0, NAM 0, metabisulfite 0, hydrosulfite 0, pH 5.4, 6 hrs, SID 90779) was 74.5%, the “6555 Remain (%)” value ([4]; mM: ascorbate 0, gentisate 0, NAM 0, metabisulfite 0, hydrosulfite 0, pH 5.4, 26 hrs, SID 90844) was 95.7% and the “6555 Remain (%)” value ([4]; mM: ascorbate 0, gentisate 0, NAM 0, metabisulfite 0, hydrosulfite 0, pH 5.4, 31 hrs, SID 90853) was 82.2%. The “6555 Remain (%)” value ([4]; mM: ascorbate 0, gentisate 0, NAM 0, metabisulfite 5, hydrosulfite 0, pH 4.9, 8 hrs, SID 90787) was 63.2%, the “6555 Remain (%)” value ([4]; mM: ascorbate 0, gentisate 0, NAM 0, metabisulfite 5, hydrosulfite 0, pH 5.1, 6 hrs, SID 90780) was 63.3% and the “6555 Remain (%)” value ([4]; mM: ascorbate 0, gentisate 0, NAM 0, metabisulfite 5, hydrosulfite 5, pH 5.1, 7 hrs, SID 90783) was 66.9%. For the same molecule, the “6555 Remain (%)” value ([4]; mM: ascorbate 0, gentisate 0, NAM 0, metabisulfite 25, hydrosulfite 0, pH 4.2, 8 hrs, SID 90790) was 63.2%, the “6555 Remain (%)” value ([4]; mM: ascorbate 5, gentisate 2, NAM 0, metabisulfite 5, hydrosulfite 5, pH 5, 17 hrs, SID 90756) was 96.1% and the “6555 Remain (%)” value ([4]; mM: ascorbate 5, gentisate 2, NAM 0, metabisulfite 5, hydrosulfite 5, pH 5, 28 hrs, SID 90772) was 82.9%. The “6555 Remain (%)” value ([4]; mM: ascorbate 5, gentisate 2, NAM 0, metabisulfite 5, hydrosulfite 5, pH 5.2, 7 hrs, SID 90786) was 77.4%, the “6555 Remain (%)” value ([4]; mM: ascorbate 5, gentisate 2, NAM 0, metabisulfite 5, hydrosulfite 5, pH 5.2, 26 hrs, SID 90845) was 96.7% and the “6555 Remain (%)” value ([4]; mM: ascorbate 5, gentisate 2, NAM 0, metabisulfite 5, hydrosulfite 5, pH 5.2, 31 hrs, SID 90854) was 77.4%. The “6555 Remain (%)” value ([4]; mM: ascorbate 5, gentisate 2, NAM 5, metabisulfite 0, hydrosulfite 5, pH 5.0, 18 hrs, SID 90755) was 96.2%, the “6555 Remain (%)” value ([4]; mM: ascorbate 5, gentisate 2, NAM 5, metabisulfite 0, hydrosulfite 5, pH 5.0, 27 hrs, SID 90771) was 85.3% and the “6555 Remain (%)” value ([4]; mM: ascorbate 5, gentisate 2, NAM 5, metabisulfite 5, hydrosulfite 0, pH 5.1, 18 hrs, SID 90753) was 95.6%. For the same molecule, the “6555 Remain (%)” value ([4]; mM: ascorbate 5, gentisate 2, NAM 5, metabisulfite 5, hydrosulfite 0, pH 5.1, 27 hrs, SID 90769) was 92.8%.
